In patent publication US6930227B1 (Mitsui Chemicals, Inc., priority 1999, dated 2005):

What was measured:
N-methyl transferase [1] = molecular target: T1, N-methyl transferase (Camellia sinensis, UniProt Q9FZN8); assay: N-methyl transferase measurement with enzyme solution from Escherichia coli expressing the gene (14C-caffeine extraction); assay type: biochemical; settings: for production of methylated product from the added substrate: substrate added instead of paraxanthine, same reaction solution
T1 construct: made in house; host or cells: Escherichia coli BL21 (DE3), vector pET23d
T1 sequence (Q9FZN8 14-369 limits assumed): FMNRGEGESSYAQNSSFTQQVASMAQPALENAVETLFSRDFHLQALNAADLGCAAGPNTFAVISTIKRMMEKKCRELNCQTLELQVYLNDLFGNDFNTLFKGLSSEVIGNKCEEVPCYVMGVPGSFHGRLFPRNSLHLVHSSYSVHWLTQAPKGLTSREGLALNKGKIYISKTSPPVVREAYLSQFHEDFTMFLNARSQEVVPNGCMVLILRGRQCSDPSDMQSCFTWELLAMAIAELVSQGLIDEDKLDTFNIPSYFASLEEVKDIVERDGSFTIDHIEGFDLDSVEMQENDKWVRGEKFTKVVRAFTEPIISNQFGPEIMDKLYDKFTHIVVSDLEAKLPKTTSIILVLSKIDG
Experimental: Separately, a fragment obtained by treating the isolated N-methyl transferase gene DNA fragment with NcoI and EcoRI was inserted into a pET23d vector. Then, the above PCR product was inserted into the NcoI site of this pET23d vector to construct an N-methyl transferase expression plasmid. This plasmid was transformed to Escherichia coli BL21 (DE3). After the obtained Escherichia coli was cultured at 37° C. for 2 hours, IPTG was added thereto so as to be 0.3 mM in final concentration, and 3-hour culture was further carried out at 30° C. After culturing had been completed, cells were collected and the cells from 3 ml culture solution were subjected to supersonic treatment for 1 minute with interval in 0.2 ml 10 mM Tris-hydrochloric acid buffer solution (pH 7.5), 0.1 M NaCl, 1 mM EDTA-Na2. Then, centrifugation was carried out at 14,000 rpm for 10 minutes, and the obtained supernatant was employed as an enzyme solution.
The reaction solution for N-methyl transferase measurement was prepared as follows. […] Reaction was carried out at 27° C. for 10 minutes, the obtained ^14C-caffeine was extracted by adding 1 ml chloroform thereto and the radiation activity of a chloroform layer was measured. As a control, xanthosine was added to the reaction solution instead of paraxanthine or paraxanthine was removed.

N-methyl transferase [2] = molecular target: T2, N-methyl transferase (Camellia sinensis, UniProt Q9FZN8); assay type: biochemical
T2 sequence (Q9FZN8 1-369): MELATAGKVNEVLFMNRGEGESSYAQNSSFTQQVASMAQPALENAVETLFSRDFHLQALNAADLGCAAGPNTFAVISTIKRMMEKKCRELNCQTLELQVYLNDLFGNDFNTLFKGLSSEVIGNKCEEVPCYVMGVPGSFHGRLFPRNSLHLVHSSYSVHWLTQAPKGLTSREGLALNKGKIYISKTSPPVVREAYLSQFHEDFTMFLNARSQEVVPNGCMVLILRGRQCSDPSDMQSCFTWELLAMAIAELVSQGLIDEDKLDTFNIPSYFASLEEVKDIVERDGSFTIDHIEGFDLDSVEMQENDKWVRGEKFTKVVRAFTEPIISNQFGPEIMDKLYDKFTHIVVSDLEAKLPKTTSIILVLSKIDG
Experimental: Inhibitor: SAH (S-adenosyl homocysteine)
The reaction solution for N-methyl transferase measurement was prepared as follows. […] Reaction was carried out at 27° C. for 10 minutes, the obtained ^14C-caffeine was extracted by adding 1 ml chloroform thereto and the radiation activity of a chloroform layer was measured.

[3] = substrate: Cn1c(=O)[nH]c2ncn(C)c2c1=O; assay: purified protein, by the assay type; settings: other: substrate of the N-methyl transferase; pH 8.5; 27.0 °C

**Q.** How did the “production of methylated product from the added substrate” value (shortened to “production of methylated product”) (N-methyl transferase [1]) turn out when O=c1[nH]c(=O)c2ncn([C@@H]3O[C@H](CO)[C@@H](O)[C@H]3O)c2[nH]1 [xanthosine] was run?
**A.** caffeine was produced only when paraxanthine was added

**Q.** With C[S+](CC[C@H](N)C(=O)[O-])C[C@H]1O[C@@H](n2cnc3c(N)ncnc32)[C@H](O)[C@@H]1O (some centres unmarked) [SAM, S-adenosyl methionine] as the molecule, how does the Km (N-methyl transferase [2]; substrate of the N-methyl transferase) read?
**A.** 21 µM

**Q.** For Nc1ncnc2c1ncn2[C@@H]1O[C@H](CSCC[C@H](N)C(=O)O)[C@@H](O)[C@H]1O [SAH, S-adenosyl homocysteine], which Inhibitor (N-methyl transferase [2]; inhibitor of the N-methyl transferase) is on record?
**A.** Inhibitor

**Q.** For Cn1cnc2[nH]c(=O)[nH]c(=O)c21 [7-methyl xanthine], which “production of methylated product” value (N-methyl transferase [1]) is on record?
**A.** production of theobromine was observed

**Q.** For Cn1c(=O)[nH]c2ncn(C)c2c1=O [paraxanthine], which caffeine produced (N-methyl transferase [1]; 0.2 mM substrate, 4 μM S-adenosyl methionine, 10 μl enzyme solution, pH 8.5, 27° C., 10 minutes) is on record?
**A.** 1.56 pmol

**Q.** Cn1cnc2c1c(=O)[nH]c(=O)n2C [theobromine] was tested. Which “production of methylated product” value (N-methyl transferase [1]) did it give?
**A.** production of caffeine was observed

B1: N-methyl transferase (Camellia sinensis) (protein)
chain: MELATAGKVNEVLFMNRGEGESSYAQNSSFTQQVASMAQPALENAVETLFSRDFHLQALNAADLGCAAGPNTFAVISTIKRMMEKKCRELNCQTLELQVYLNDLFGNDFNTLFKGLSSEVIGNKCEEVPCYVMGVPGSFHGRLFPRNSLHLVHSSYSVHWLTQAPKGLTSREGLALNKGKIYISKTSPPVVREAYLSQFHEDFTMFLNARSQEVVPNGCMVLILRGRQCSDPSDMQSCFTWELLAMAIAELVSQGLIDEDKLDTFNIPSYFASLEEVKDIVERDGSFTIDHIEGFDLDSVEMQENDKWVRGEKFTKVVRAFTEPIISNQFGPEIMDKLYDKFTHIVVSDLEAKLPKTTSIILVLSKIDG
**Q.** With B1 as the molecule, how does the Km [3] read?
**A.** 24 µM

B2: N-methyl transferase: polypeptide of SEQ ID NO: 1 with 7-methyl xanthine N3, theobromine N1 and paraxanthine N3 methyl transferase activities (protein)
chain: FMNRGEGESSYAQNSSFTQQVASMAQPALENAVETLFSRDFHLQALNAADLGCAAGPNTFAVISTIKRMMEKKCRELNCQTLELQVYLNDLFGNDFNTLFKGLSSEVIGNKCEEVPCYVMGVPGSFHGRLFPRNSLHLVHSSYSVHWLTQAPKGLTSREGLALNKGKIYISKTSPPVVREAYLSQFHEDFTMFLNARSQEVVPNGCMVLILRGRQCSDPSDMQSCFTWELLAMAIAELVSQGLIDEDKLDTFNIPSYFASLEEVKDIVERDGSFTIDHIEGFDLDSVEMQENDKWVRGEKFTKVVRAFTEPIISNQFGPEIMDKLYDKFTHIVVSDLEAKLPKTTSIILVLSKIDG
**Q.** For B2, which “Optimum pH” value (N-methyl transferase [2]) is on record?
**A.** 8.5
